From the NIST ThermoML archive (doi:10.1016/j.fluid.2018.01.025)
Numbers after ± are expanded uncertainties.

What was measured:
[1] = 101.33 kPa, Liquid; for speed of sound: Frequency=2 MHz, Linear variable-path acoustic interferometer; for mass density: Vibrating tube method
[2] = xn = mol fraction of the nth substance listed; conditions: 101 kPa, Liquid; for speed of sound: Frequency=2 MHz, Linear variable-path acoustic interferometer; for mass density: Vibrating tube method

Nc1ccccc1Cl [2-chlorobenzeneamine]
speed of sound ([1]; 303.15 K): 1468 ± 2 m/s
mass density ([1]; 303.15 K): 1202.38 ± 0.54 kg/m3
mass density ([1]; 308.15 K): 1197.56 ± 0.54 kg/m3
speed of sound ([1]; 313.15 K): 1437 ± 2 m/s
mass density ([1]; 313.15 K): 1192.97 ± 0.54 kg/m3
mass density ([1]; 318.15 K): 1187.92 ± 0.53 kg/m3
mass density ([1]; 323.15 K): 1183.26 ± 0.53 kg/m3

Nc1cccc(Cl)c1 [3-chlorobenzenamine]
speed of sound ([1]; 303.15 K): 1516 ± 2 m/s
mass density ([1]; 303.15 K): 1205.75 ± 0.58 kg/m3
mass density ([1]; 308.15 K): 1201.14 ± 0.58 kg/m3
speed of sound ([1]; 313.15 K): 1484 ± 2 m/s
mass density ([1]; 313.15 K): 1196.56 ± 0.58 kg/m3
mass density ([1]; 318.15 K): 1191.98 ± 0.57 kg/m3
mass density ([1]; 323.15 K): 1187.41 ± 0.57 kg/m3

CN(C)c1ccccc1 [N,N-dimethylaniline]
speed of sound ([1]; 303.15 K): 1470 ± 2 m/s
mass density ([1]; 303.15 K): 948.18 ± 0.41 kg/m3
mass density ([1]; 308.15 K): 943.55 ± 0.41 kg/m3
speed of sound ([1]; 313.15 K): 1432 ± 2 m/s
mass density ([1]; 313.15 K): 939.78 ± 0.41 kg/m3
mass density ([1]; 318.15 K): 935.3 ± 0.41 kg/m3
mass density ([1]; 323.15 K): 931.45 ± 0.41 kg/m3

CNc1ccccc1 [N-methylaniline]
speed of sound ([1]; 303.15 K): 1549 ± 2 m/s
mass density ([1]; 303.15 K): 981.72 ± 0.44 kg/m3
mass density ([1]; 308.15 K): 976.04 ± 0.44 kg/m3
speed of sound ([1]; 313.15 K): 1511 ± 2 m/s
mass density ([1]; 313.15 K): 970.89 ± 0.44 kg/m3
mass density ([1]; 318.15 K): 965.81 ± 0.44 kg/m3
mass density ([1]; 323.15 K): 961.13 ± 0.44 kg/m3

Nc1ccccc1 [aniline]
speed of sound ([1]; 303.15 K): 1615 ± 2 m/s
mass density ([1]; 303.15 K): 1012.78 ± 0.4 kg/m3
mass density ([1]; 308.15 K): 1008.64 ± 0.4 kg/m3
speed of sound ([1]; 313.15 K): 1578 ± 2 m/s
mass density ([1]; 313.15 K): 1004.49 ± 0.4 kg/m3
mass density ([1]; 318.15 K): 1000.36 ± 0.4 kg/m3
mass density ([1]; 323.15 K): 996.43 ± 0.4 kg/m3

Nc1ccccc1 [aniline] + OCc1ccccc1
speed of sound ([2]; 303.15 K, x2 = 0.0895): 1605.7 ± 9.8 m/s
speed of sound ([2]; 303.15 K, x2 = 0.181): 1596.1 ± 9.7 m/s
speed of sound ([2]; 303.15 K, x2 = 0.2748): 1586.4 ± 9.6 m/s
speed of sound ([2]; 303.15 K, x2 = 0.3709): 1576.5 ± 9.6 m/s
speed of sound ([2]; 303.15 K, x2 = 0.4693): 1566.6 ± 9.5 m/s
speed of sound ([2]; 303.15 K, x2 = 0.5701): 1556.3 ± 9.5 m/s
speed of sound ([2]; 303.15 K, x2 = 0.6735): 1545.9 ± 9.4 m/s
speed of sound ([2]; 303.15 K, x2 = 0.7796): 1535.2 ± 9.3 m/s
speed of sound ([2]; 303.15 K, x2 = 0.8884): 1523.9 ± 9.3 m/s
mass density ([2]; 303.15 K, x2 = 0.0895): 1015.86 ± 0.4 kg/m3
mass density ([2]; 303.15 K, x2 = 0.181): 1018.68 ± 0.41 kg/m3
mass density ([2]; 303.15 K, x2 = 0.2748): 1021.37 ± 0.41 kg/m3
mass density ([2]; 303.15 K, x2 = 0.3709): 1023.88 ± 0.41 kg/m3
mass density ([2]; 303.15 K, x2 = 0.4693): 1026.28 ± 0.41 kg/m3
mass density ([2]; 303.15 K, x2 = 0.5701): 1028.61 ± 0.41 kg/m3
mass density ([2]; 303.15 K, x2 = 0.6735): 1030.85 ± 0.41 kg/m3
mass density ([2]; 303.15 K, x2 = 0.7796): 1033.02 ± 0.41 kg/m3
mass density ([2]; 303.15 K, x2 = 0.8884): 1035.14 ± 0.41 kg/m3
mass density ([2]; 308.15 K, x2 = 0.0895): 1011.46 ± 0.4 kg/m3
mass density ([2]; 308.15 K, x2 = 0.181): 1014.15 ± 0.4 kg/m3
mass density ([2]; 308.15 K, x2 = 0.2748): 1016.76 ± 0.41 kg/m3
mass density ([2]; 308.15 K, x2 = 0.3709): 1019.29 ± 0.41 kg/m3
mass density ([2]; 308.15 K, x2 = 0.4693): 1021.76 ± 0.41 kg/m3
mass density ([2]; 308.15 K, x2 = 0.5701): 1024.17 ± 0.41 kg/m3
mass density ([2]; 308.15 K, x2 = 0.6735): 1026.55 ± 0.41 kg/m3
mass density ([2]; 308.15 K, x2 = 0.7796): 1028.88 ± 0.41 kg/m3
mass density ([2]; 308.15 K, x2 = 0.8884): 1031.18 ± 0.41 kg/m3
speed of sound ([2]; 313.15 K, x2 = 0.0895): 1570.1 ± 9.5 m/s
speed of sound ([2]; 313.15 K, x2 = 0.181): 1561.9 ± 9.5 m/s
speed of sound ([2]; 313.15 K, x2 = 0.2748): 1553.5 ± 9.4 m/s
speed of sound ([2]; 313.15 K, x2 = 0.3709): 1544.9 ± 9.4 m/s
speed of sound ([2]; 313.15 K, x2 = 0.4693): 1536 ± 9.3 m/s
speed of sound ([2]; 313.15 K, x2 = 0.5701): 1526.9 ± 9.3 m/s
speed of sound ([2]; 313.15 K, x2 = 0.6735): 1517.5 ± 9.2 m/s
speed of sound ([2]; 313.15 K, x2 = 0.7796): 1507.8 ± 9.2 m/s
speed of sound ([2]; 313.15 K, x2 = 0.8884): 1497.7 ± 9.1 m/s
mass density ([2]; 313.15 K, x2 = 0.0895): 1007.17 ± 0.4 kg/m3
mass density ([2]; 313.15 K, x2 = 0.181): 1009.79 ± 0.4 kg/m3
mass density ([2]; 313.15 K, x2 = 0.2748): 1012.36 ± 0.4 kg/m3
mass density ([2]; 313.15 K, x2 = 0.3709): 1014.9 ± 0.41 kg/m3
mass density ([2]; 313.15 K, x2 = 0.4693): 1017.36 ± 0.41 kg/m3
mass density ([2]; 313.15 K, x2 = 0.5701): 1019.82 ± 0.41 kg/m3
mass density ([2]; 313.15 K, x2 = 0.6735): 1022.24 ± 0.41 kg/m3
mass density ([2]; 313.15 K, x2 = 0.7796): 1024.64 ± 0.41 kg/m3
mass density ([2]; 313.15 K, x2 = 0.8884): 1027.03 ± 0.41 kg/m3
mass density ([2]; 318.15 K, x2 = 0.0895): 1003.04 ± 0.4 kg/m3
mass density ([2]; 318.15 K, x2 = 0.181): 1005.68 ± 0.4 kg/m3
mass density ([2]; 318.15 K, x2 = 0.2748): 1008.28 ± 0.4 kg/m3
mass density ([2]; 318.15 K, x2 = 0.3709): 1010.83 ± 0.4 kg/m3
mass density ([2]; 318.15 K, x2 = 0.4693): 1013.33 ± 0.41 kg/m3
mass density ([2]; 318.15 K, x2 = 0.5701): 1015.83 ± 0.41 kg/m3
mass density ([2]; 318.15 K, x2 = 0.6735): 1018.31 ± 0.41 kg/m3
mass density ([2]; 318.15 K, x2 = 0.7796): 1020.74 ± 0.41 kg/m3
mass density ([2]; 318.15 K, x2 = 0.8884): 1023.15 ± 0.41 kg/m3
mass density ([2]; 323.15 K, x2 = 0.0895): 999.07 ± 0.4 kg/m3
mass density ([2]; 323.15 K, x2 = 0.181): 1001.68 ± 0.4 kg/m3
mass density ([2]; 323.15 K, x2 = 0.2748): 1004.27 ± 0.4 kg/m3
mass density ([2]; 323.15 K, x2 = 0.3709): 1006.82 ± 0.4 kg/m3
mass density ([2]; 323.15 K, x2 = 0.4693): 1009.35 ± 0.4 kg/m3
mass density ([2]; 323.15 K, x2 = 0.5701): 1011.87 ± 0.41 kg/m3
mass density ([2]; 323.15 K, x2 = 0.6735): 1014.35 ± 0.41 kg/m3
mass density ([2]; 323.15 K, x2 = 0.7796): 1016.84 ± 0.41 kg/m3
mass density ([2]; 323.15 K, x2 = 0.8884): 1019.33 ± 0.41 kg/m3

OCc1ccccc1 [benzenemethanol]
speed of sound ([1]; 303.15 K): 1512 ± 2 m/s
mass density ([1]; 303.15 K): 1037.18 ± 0.14 kg/m3
mass density ([1]; 308.15 K): 1033.45 ± 0.14 kg/m3
speed of sound ([1]; 313.15 K): 1487 ± 2 m/s
mass density ([1]; 313.15 K): 1029.36 ± 0.14 kg/m3
mass density ([1]; 318.15 K): 1025.57 ± 0.14 kg/m3
mass density ([1]; 323.15 K): 1021.78 ± 0.14 kg/m3
